In assay [1] the test system is mid-aged Long-Evans female rats. Nature of the assay: Example 17: Porsolt forced swim test and body weight in mid-aged female rats. It is filed as in vivo, rat. As to the method:
The female rats were exposed (from time of conception) to either a phytoestrogen-rich (Phyto-600) or a phytoestrogen-free (Phyto-free) diet.
At 12 months of age, the animals were analyzed using the Porsolt forced swim test that is a standard preclinical test with applications to humans for investigating the neurobiology of depression and of action of antidepressant agent (R. D. Porsolt, M. Pichon and M Jalfre, Nature 266: 730-732, 1977; and M. A. Geyer & A. Markou, in Psychopharmacology: The Fourth Generation of Progress, NY, Raven Press, pp. 787-798, 1995).
The test is designed to force rats to swim vigorously. Over time, some of the animals may become immobile which is considered a condition of behavioral despair. The total time an animal is immobile is an index of despair or depression. […] S. Hall, J. Comp. Psych., 18: 385-403, 1934), increased boli numbers during the test would indicate heighten emotional behavior. All of these parameters were recorded in this study and quantified by AnyMaze® computer software and the total time of the Porsolt forced swim test was 480 seconds or 8 minutes.
The animals were tested twice.
Test 1 compared diet exposure alone, shown as A in FIGS. 58-69 and labeled as “before equol injections.”
In the second stage of testing the Phyto-free fed females were injected with equol@ […] or 2.5 mg/kg via subcutaneous administration) for 8 days while the Phyto-600 fed females received dimethylsulfoxide (DMSO) vehicle control injections. (DMSO has been used in medicine due to its ability to penetrate deeply through the skin and other membranes without damaging them and ability to carry compounds into the circulation).
Test 2 assessed depressive behaviors following the equol treatments, shown as B in FIGS. 58-69 and labeled as “after equol injections.”

Another assay has as its target T1, ERα (Rattus norvegicus, UniProt P06211).
T1 construct: Full length rat ERα expression vector (pcDNA-ERα; RH Price UCSF); made in house; host or cells: TnT-coupled rabbit reticulocyte lysate in vitro translation (Promega)
T1 sequence (P06211 1-600): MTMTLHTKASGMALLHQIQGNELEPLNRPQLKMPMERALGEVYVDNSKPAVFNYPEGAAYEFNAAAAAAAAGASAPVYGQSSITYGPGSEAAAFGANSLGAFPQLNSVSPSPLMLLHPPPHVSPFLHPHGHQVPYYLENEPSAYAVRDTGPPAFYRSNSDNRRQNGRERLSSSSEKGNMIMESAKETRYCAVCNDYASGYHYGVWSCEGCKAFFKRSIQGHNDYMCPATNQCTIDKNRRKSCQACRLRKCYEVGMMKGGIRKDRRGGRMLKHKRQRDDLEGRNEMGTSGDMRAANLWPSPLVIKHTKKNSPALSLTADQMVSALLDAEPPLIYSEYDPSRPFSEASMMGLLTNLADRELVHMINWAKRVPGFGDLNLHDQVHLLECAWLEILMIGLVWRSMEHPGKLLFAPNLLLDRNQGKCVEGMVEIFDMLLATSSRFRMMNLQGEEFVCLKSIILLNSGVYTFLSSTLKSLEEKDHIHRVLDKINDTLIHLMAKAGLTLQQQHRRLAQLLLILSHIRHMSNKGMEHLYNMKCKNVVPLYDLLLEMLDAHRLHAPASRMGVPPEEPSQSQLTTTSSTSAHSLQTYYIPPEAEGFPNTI
Nature of the assay: Competition binding of equol enantiomers with [3H]E2 for in vitro translated ERα. On the procedure: (§1) In vitro binding studies were performed to examine the relative affinities of S— and R-enantiomeric equol with the estrogen receptors ERα and ERβ.
(§2) Synthesis of Hormone Receptor Proteins: Full length rat ERα expression vector (pcDNA-ERα; RH Price UCSF) and ERβ expression vector (pcDNA-ERβ; T A Brown, Pfizer, Groton, […].) were used to synthesize hormone receptors in vitro using the TnT-coupled reticulocyte lysate system (Promega, Madison, Wis.) with T7-RNA polymerase, during a 90 min reaction at 30° C. Translation reaction mixtures were stored at −80° C. until further use.
(§3) Saturation isotherms: In order to calculate and establish the binding affinity of the S-equol and R-equol enantiomers for ERα and ERβ, 100 μL aliquots of reticulocyte lysate supernatant were incubated at optimal time and temperature; 90 min at room temperature (ERβ) and 18 hrs at 4° C. (ERα), with increasing (0.01-100 nm) concentrations of [3H] […] These times were determined empirically and represent optimal binding of receptor with estrogen. Nonspecific binding was assessed using a 300-fold excess of the ER agonist diethylstilbestrol, in parallel tubes. Following incubation, bound and unbound [3H]E2 were separated by passing the incubation reaction through a 1 mL lipophilic Sephadex LH-20 (Sigma-Aldrich Co., Saint Louis, Mo.) column Columns were constructed by packing a disposable pipette tip (1 mL; Labcraft, Curtin Matheson Scientific, Inc, Houston, Tex.) with TEGMD (10 mm Tris-Cl, 1.5 mm EDTA, 10% glycerol, 25 mm molybdate, and 1 mm dithiothreitol, pH 7.4)-saturated Sephadex according to previously published protocols (Wanda et al., 1986; O'Keefe and Handa, 1990). For chromatography, the columns were re-equilibrated with TEGMD (100 μL), and the incubation reactions were added individually to each column and allowed to incubate on the column for an additional 30 min. Following this incubation, 600 μL of TEGMD were added to each column, flow-through was collected, 4 mL scintillation fluid was added, and samples were counted (5 min each) in an 2900 TR Packard scintillation counter (Packard Bioscience, Meriden, Conn.).
(§4) Competition binding studies were used to assess the estrogenic properties of equol's S-equol and R-equol enantiomers. Based on the ability of S and R to compete with [3H]

The next assay deals with T2, ERβ (Rattus norvegicus, UniProt Q62986).
T2 construct: Full length rat ERα expression vector (pcDNA-ERα; RH Price UCSF) and ERβ expression vector (pcDNA-ERβ; T A Brown, Pfizer; made in house; host or cells: TnT-coupled rabbit reticulocyte lysate in vitro translation (Promega)
T2 sequence (Q62986 whole entry): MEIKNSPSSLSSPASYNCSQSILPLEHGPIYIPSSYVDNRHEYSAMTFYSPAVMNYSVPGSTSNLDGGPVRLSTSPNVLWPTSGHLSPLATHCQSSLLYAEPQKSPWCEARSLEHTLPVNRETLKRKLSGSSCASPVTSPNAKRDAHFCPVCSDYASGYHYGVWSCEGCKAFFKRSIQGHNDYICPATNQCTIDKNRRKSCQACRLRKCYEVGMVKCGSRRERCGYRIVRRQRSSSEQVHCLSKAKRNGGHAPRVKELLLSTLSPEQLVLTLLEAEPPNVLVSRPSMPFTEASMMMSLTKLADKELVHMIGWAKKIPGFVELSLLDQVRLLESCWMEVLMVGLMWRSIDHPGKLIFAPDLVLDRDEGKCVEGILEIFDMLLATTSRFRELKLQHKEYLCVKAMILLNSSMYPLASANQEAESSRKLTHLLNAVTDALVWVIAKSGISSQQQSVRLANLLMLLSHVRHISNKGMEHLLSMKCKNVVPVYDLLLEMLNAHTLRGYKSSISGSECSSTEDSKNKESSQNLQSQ
Nature of the assay: Competition binding of equol enantiomers with [3H]E2 for in vitro translated ERβ. As to the method: as §1, §2, §3, §4

Where [2] appears, read: Test 2, Phyto-free females after equol for 8 days.
The mark [3] stands for this setting: competition with [3H]E2, in vitro translated ER.

Values joined by “and” are separate entries in the source; they are usually repeats but may differ in a detail not shown here. Identical values can stand only once.

Regarding `Oc1ccc(C2COc3cc(O)ccc3C2)cc1` (racemic) [equol, 7-hydroxy-3(4′hydroxyphenyl)-chroman], in assay [1] (Test 2, Phyto-free females after equol 5 mg/day sc for 8 days), the total distance traveled entry is “increased and similar to control values”. In addition, in assay [1] (setting [2]), the number of boli result is recorded as “reduced after equol treatments”; the number of dives result is “significantly reduced and comparable to control levels”; the total time immobile entry was “significantly reduced and similar to controls”. Also, in assay [1] (Test 2, after vs before equol injections), the total time mobile result is “significantly increased”. Moreover, the “decrease in body weight over controls” value in assay [1] (after the 8 day treatment interval) was found to be 2.6 fold. In addition, the “Body Weight Loss (grams)” value in assay [1] (mid-aged females, end of 8 day treatment, ±SEM) is on record as −31.2 (±4.8*) grams.

Consider `Oc1ccc([C@@H]2COc3cc(O)ccc3C2)cc1` [R-equol], for which the “relative binding affinity for ERα compared with 17β-estradiol, fold less” value at ERα was 210.6 fold and 211 fold. For the same compound, the Kd was 0.0274 ± 0.0038 µM on ERα (setting [3]) and 0.0154 ± 0.00131 µM at ERβ (setting [3]). Also, the “affinity for ERβ, fold less” value on ERβ was “approximately 100 fold”.

The Kd is the concentration at which binding is half-saturated.
